“Also recorded” adds a separate entry of the source.

Results on nine compounds are retold here after article PMC8130708 (Journal of medicinal chemistry, 2021).

The target of assay [1] is T1, NSD2-PWWP1 (Homo sapiens, UniProt O96028).
T1 sequence (O96028 211-350): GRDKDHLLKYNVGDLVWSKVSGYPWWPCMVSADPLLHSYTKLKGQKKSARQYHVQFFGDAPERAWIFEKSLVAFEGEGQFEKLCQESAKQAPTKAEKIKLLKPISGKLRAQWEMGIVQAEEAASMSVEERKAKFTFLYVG
Description: Differential static light scattering. It counts as binding. The following applies: read-out: increase of melting temperature of N-terminal PWWP domain of NSD2.

For a further assay, the system named is PWWP domains. To be noted: DSLS.
Assay [2] concerns the target T2, NSD2-PWWP1 (Homo sapiens, UniProt O96028).
T2 sequence (O96028 222-286 limits assumed): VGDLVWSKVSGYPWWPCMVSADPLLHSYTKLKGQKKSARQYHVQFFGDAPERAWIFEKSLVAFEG
It counts as binding. To be noted: for potency on NSD2-PWWP1, SAR statement in words: relative to parent compound 2 or 3, Tables 1 and 2 (images, DSLS/SPR).

Take `N#Cc1ccc(C(C(N)=O)N2CCC2c2ccc(Cl)cc2)cc1` (centres unmarked) [Compound 1]: the ΔTm at 400 µM on NSD2-PWWP1 [1] is 4 °C. For the same compound, the “binding to six other PWWP-containing proteins” value with PWWP domains (compound at 400 μM (Table S2)) is listed as “did not bind”.
`N#Cc1ccc(C(=O)N2CCCC2c2ccccc2)cc1` (centres unmarked) [Compound 2a]: the “potency on NSD2-PWWP1, SAR statement in words” value (“potency on NSD2-PWWP1” below) at NSD2-PWWP1 [2] is on record as “improved potency”.
Take `COc1ccc(C2CCCN2C(=O)c2ccc(C#N)cc2)cc1` (centres unmarked) [Compound 2b]: the “potency on NSD2-PWWP1” value on NSD2-PWWP1 [2] is reported as “no significant effect”.
As to `O=C(c1ccccc1)N1CCCC1c1ccccc1` (centres unmarked) [Compound 2h], the “potency on NSD2-PWWP1” value at NSD2-PWWP1 [2] is recorded as “abolished activity”.
Still for that read-out and setting: the value for `Cc1ccc(C(=O)N2CCCC2c2ccc(Cl)cc2)cc1` (centres unmarked) [Compound 2i] was “abolished activity”.
`N#Cc1ccc(C(=O)N(Cc2ccc(F)cc2)C2CC2)cc1` [Compound 3]: at NSD2-PWWP1 [2] (ratio of SPR Kd values), the “fold more potent than compound 1” value was found to be 6 and the “fold more potent than compound 2” value is 25.
On to `CN(Cc1ccc(F)cc1)C(=O)c1ccc(C#N)cc1` [Compound 3a], for which the “potency on NSD2-PWWP1” value at NSD2-PWWP1 [2] was “much weaker or completely inactive”.
The same measure, in the same setting: the value for `N#Cc1ccc(C(=O)NCc2ccc(F)cc2)cc1` [Compound 3b] was “much weaker or completely inactive”.
With `N#Cc1ccc(C(=O)N(Cc2cccs2)C2CC2)cc1` [Compound 3f], in the assay on PWWP domains (compound at 100 μM (Figure 2C)), the “binding / effect on melting temperature in a panel of 10 PWWP domains” value is reported as “only bound NSD2-PWWP1; also recorded: only affects the melting temperature of NSD2-PWWP1”.
